In PMC10146281, “Pharmacokinetic and Pharmacodynamic Characteristics of Pelubiprofen Tromethamine vs. Pelubiprofen in Healthy Subjects” (Pharmaceutics, 2023):
Where two headings read alike, the source gives them in different places.

Legend:
cyclooxygenase-2 (COX-2) = target: T1, cyclooxygenase-2 (COX-2) (Homo sapiens, UniProt P35354)
T1 sequence (P35354 18-604): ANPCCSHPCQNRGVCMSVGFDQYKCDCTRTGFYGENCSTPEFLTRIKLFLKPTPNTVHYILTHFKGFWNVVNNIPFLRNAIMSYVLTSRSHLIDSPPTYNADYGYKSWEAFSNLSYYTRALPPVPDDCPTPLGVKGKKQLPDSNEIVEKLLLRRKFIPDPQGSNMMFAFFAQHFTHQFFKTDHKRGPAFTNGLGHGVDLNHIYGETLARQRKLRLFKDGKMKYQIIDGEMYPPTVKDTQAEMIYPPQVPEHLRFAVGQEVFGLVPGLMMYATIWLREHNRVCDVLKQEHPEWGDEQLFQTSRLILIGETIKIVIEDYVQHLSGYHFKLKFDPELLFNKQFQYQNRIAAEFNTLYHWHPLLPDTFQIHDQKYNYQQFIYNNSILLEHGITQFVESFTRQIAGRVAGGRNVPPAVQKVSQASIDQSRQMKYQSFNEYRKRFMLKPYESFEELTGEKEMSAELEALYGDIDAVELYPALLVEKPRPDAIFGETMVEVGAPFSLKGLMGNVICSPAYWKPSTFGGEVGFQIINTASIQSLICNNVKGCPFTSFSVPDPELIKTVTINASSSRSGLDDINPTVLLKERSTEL
Description: To analyze the pharmacodynamic (PD) characteristics, approximately 1 mL of blood was sampled from the subjects in Study I, who had agreed to participate in the associated PD evaluation. The blood sampling was performed before administration (0 h) and at the following time points after administration: 0.083 h (5 min), 0.167 h (10 min), 0.33 h (20 min) and 0.5, 0.75, 1, 1.5, 2, 2.5, 3, 3.5, 4, 6, and 8 h. Therefore, for each subject, the blood sampling was performed 15 times in each period. While the PD analysis was performed on the same schedule as the PK analysis, only period 1 and 2 results were included in the analyses, and the post study visit was not performed.
The pharmacodynamic (PD) analysis was performed on the subjects in Study I, who had agreed to participate in the PD evaluation. For pharmacodynamic evaluation, the lipopolysaccharide (LPS) from E. coli O111:B4 (Sigma-Aldrich, Seoul, Republic of Korea) and the prostaglandin E2 (PGE2) enzyme-linked immunosorbent assay (ELISA) monoclonal kit (Cayman Chemical, MI, USA) were used. This study was conducted on healthy subjects, and LPS was added to sampled blood to induce inflammatory gene expression. The following procedures were applied for the PGE2 concentration analysis of subjects in Study I, who had agreed to participate in the pharmacodynamic evaluation.
Into 1.0 mL of sampled blood, 10 μL of lipopolysaccharide (LPS) was added. The mixture was centrifuged at […] and 4 °C for 10 min. By mixing the PGE2 ELISA standard and 1.0 mL of ELISA buffer, the standard reagents were produced at 1000, 500, 250, 125, 62.5, 31.3, 15.6, 7.8 pg/mL concentrations. Subsequently, to each well of the 96-well plate, 50 μL of the standard reagent, PGE2 acetylcholinesterase (AChE) tracer, and PGE2 monoclonal antibody were added. Each plate was then covered with a plastic film to be cultured at 4 °C for 18 h. Then, the wells were washed with the buffer solution 5 times, after which 200 μL of Ellman’s reagent was added to each well. The plate was covered with film once more to be placed on an orbital shaker for 60 min. The plate was read at a wavelength of 410 nm.
Pharmacodynamic (PD) was analyzed with data from the first and second periods. The plasma Prostaglandin E2 (PGE2) concentration in the first and second periods of Study I was measured using the enzyme-linked immunosorbent assay (ELISA) at the same time points as in the PK analysis: before investigational drug administration (0 h) and after drug administration at 0.083 h (5 min), 0.167 h (10 min), 0.33 h (20 min), and 0.5, 0.75, 1, 1.5, 2, 2.5, 3, 3.5, 4, 6, and 8 h. Therefore, for each subject, the measurements were taken 15 times in each period. While the PD analysis was performed on the same schedule as the PK analysis, only period 1 and 2 results were included in the analyses, and the post-study visit was not performed.
The PGE2 concentration and the cyclooxygenase-2 (COX-2) inhibitory effect derived from baseline (0 h time point before drug administration) values for each subject in Study I were visualized. The decreased level of calibrated PGE2 concentration performed in accordance with the concentration at baseline for each subject was tested as the extent of COX-2 inhibition, and the GMR and respective 90% CI of the COX-2 inhibition were applied in the PD analysis.
The pharmacodynamic (PD) data from the subjects in Study I, who had agreed to participate in the PD evaluation, were analyzed as follows to check for outliers. Grubbs’ test was performed when the normality of the data was satisfied; otherwise, a boxplot was drawn for log-transformed values, after which values outside the interquartile range (IQR) were checked for subsequent use in Grubb’s test. For significant outliers, the data excluding the values were analyzed once again.

[1] = Study II safety and tolerability evaluation (adverse events); format: in vivo, human; details: treatment of test (30 mg pelubiprofen tromethamine), 36 subjects evaluated, mild, 'not related'
Description: In both Study I and II, the safety evaluation was performed on subjects administered with the investigational drug at least once. Any clinically significant findings in the interview, physical examination, vital signs, 12-lead electrocardiogram (ECG), the clinical laboratory test, etc., during the study period were collected as adverse events, which were subsequently evaluated for the incidence of serious adverse events, severity, causal relationship, etc. All relevant data were collected through monitoring by the investigator and voluntary reporting by the subjects. To collect additional data, interview and physical examination were performed where necessary. The investigator carried out the follow-up monitoring of the subjects with adverse events until the symptoms subsided and abnormal test values returned to a healthy baseline or until a satisfactory explanation for the observed change could be provided.

[2] = set-up: method as in PMID 34070062; details: non-clinical studies; cited from earlier work
[3] = set-up: method as in earlier work; details: cited from earlier work
[4] = Study I, all subjects N = 30, 25 mg pelubiprofen tromethamine vs. 30 mg pelubiprofen
[5] = Study I, without outliers N = 28, 25 mg pelubiprofen tromethamine vs. 30 mg pelubiprofen

Row | SMILES | Tmax,i (time of peak baseline-corrected COX-2 inhibition) (cyclooxygenase-2 (COX-2); Study I periods 1 and 2, all subjects N = 30, single oral 25 mg pelubiprofen tromethamine, median (minimum–maximum)) | Tmax,I (time of peak baseline-corrected COX-2 inhibition) (cyclooxygenase-2 (COX-2); Study I periods 1 and 2, without outliers (A03 and A08) N = 28, single oral 25 mg pelubiprofen tromethamine, median (minimum–maximum)) | Geometric Mean Ratio (90% CI) of AUIC (cyclooxygenase-2 (COX-2); [4]) | Geometric Mean Ratio (90% CI) of Imax (cyclooxygenase-2 (COX-2); [4]) | Geometric Mean Ratio (90% CI) of Tmax,i (cyclooxygenase-2 (COX-2); [4]) | maximum COX-2 inhibitory effect compared to the reference (cyclooxygenase-2 (COX-2); Study I, all subjects, 25 mg pelubiprofen tromethamine compared to 30 mg pelubiprofen) | COX-2 inhibitory effect compared to the reference (cyclooxygenase-2 (COX-2); Study I, excluding two outlier subjects (A03 and A08), 25 mg pelubiprofen tromethamine compared to 30 mg pelubiprofen) | Geometric Mean Ratio (90% CI) of AUIC (cyclooxygenase-2 (COX-2); [5]) | Geometric Mean Ratio (90% CI) of Imax (cyclooxygenase-2 (COX-2); [5]) | Geometric Mean Ratio (90% CI) of Tmax,I (cyclooxygenase-2 (COX-2); [5]) | Geometric Mean Ratio (90% CI) of Imax (cyclooxygenase-2 (COX-2); Study I, without outliers N = 28, 25 mg pelubiprofen tromethamine vs. 30 mg pelubiprofen, listed as pelubiprofen tromethamine) | adverse events [1] | solubility and absorption compared to pelubiprofen [2] | time after administration until which COX-2 inhibition was maintained (cyclooxygenase-2 (COX-2); Study I, single oral 30 mg pelubiprofen) | Tmax,I (time of peak baseline-corrected COX-2 inhibition) (cyclooxygenase-2 (COX-2); human, in vivo, po, 30 mg) | Tmax,PGE2 (cyclooxygenase-2 (COX-2); human, in vivo, po, 30 mg) | Tmax,i (time of peak baseline-corrected COX-2 inhibition) (cyclooxygenase-2 (COX-2); human, in vivo, po, 30 mg) | protein binding rate [3]
1 | CC(C(=O)O)c1ccc(/C=C2\CCCCC2=O)cc1 (stereo not drawn) [Pelubiprofen Tromethamine, pelubiprofen tromethamine] | 0.50 (0.00–3.50) h | 0.50 (0.17–3.50) h | 1.09 (0.94–1.27) | 0.98 (0.95–1.02) | 1.01 (0.75–1.35) | approximately 98% | approximately 98% | 1.03 (0.91–1.18) | 0.98 (0.95–1.01) | 1.00 (0.73–1.36) | approximately 0.98 | one case of adverse events | enhanced solubility and absorption | – | – | – | – | –
2 | CC(C(=O)O)c1ccc(/C=C2\CCCCC2=O)cc1 (stereo not drawn) [Pelubiprofen, 2-[4-(oxocyclohexylidenemethyl)-phenyl] propionic acid] | – | – | – | – | – | – | – | – | – | – | – | – | – | approximately 8 h | 0.50 (0.33–3.50) h | 0.08 (0.00–8.00) h | 0.50 (0.33–3.50) h | high protein binding rate
